According to patent publication US11535621B2, “Heterobicyclic amides as inhibitors of CD38” (Ribon Therapeutics, Inc., priority 2019, dated 2022):

Target: Human CD38 (Homo sapiens (Human), UniProt P28907)
Test: CD38 enzyme assay
Type: biochemical
Conditions: 2 nM CD38, NAD+ substrate, absorbance at 405 nm
Description: [formula] where SUBcmpd is the subtracted value for the individual compound treated well, SUBmin is the average of the subtracted values of the 4-(((1r,4r)-4-(2-methoxyethoxy)cyclohexyl)amino)-1-methyl-6-(thiazol-5-yl)quinolin-2(1H)-one positive control wells and SUBmax is the average of the subtracted values of the DMSO negative control wells.
The % inhibition values were plotted as a function of compound concentration and the following 4-parameter fit was applied to derive the IC50 values:
[formula] where top and bottom are normally allowed to float, but may be fixed at 100 or 0 respectively in a 3-parameter fit. The Hill Coefficient is normally allowed to float but may also be fixed at 1 in a 3-parameter fit. Y is the % inhibition and X is the compound concentration.

Sequence of Human CD38 (P28907 whole entry): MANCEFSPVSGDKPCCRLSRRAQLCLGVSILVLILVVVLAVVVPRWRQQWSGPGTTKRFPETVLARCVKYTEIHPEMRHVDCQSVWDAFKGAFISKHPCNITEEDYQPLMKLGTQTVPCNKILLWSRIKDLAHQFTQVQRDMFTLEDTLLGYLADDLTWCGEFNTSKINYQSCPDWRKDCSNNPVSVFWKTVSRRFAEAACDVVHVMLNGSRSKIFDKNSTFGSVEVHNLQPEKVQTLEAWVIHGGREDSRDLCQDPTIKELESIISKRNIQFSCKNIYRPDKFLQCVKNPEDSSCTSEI

| SMILES | IC50 [nM] |
| --- | --- |
| CC1(F)CN([C@H]2CC[C@H](NC(=O)c3nc(-n4ccnc4)nc4cn[nH]c34)CC2)C1 [Example 257, N-((1r,4r)-4-(3-fluoro-3-methylazetidin-1-yl)cyclohexyl)-5-(1H-imidazol-1-yl)-1H-pyrazolo[4,3-d]pyrimidine-7-carboxamide] | 10 to 100 |
| COCCO[C@H]1CC[C@H](NC(=O)c2nc(-n3ccnc3)nc3cc(C)[nH]c23)CC1 [Example 108, 2-(1H-imidazol-1-yl)-N-((1r,4r)-4-(2-methoxyethoxy)cyclohexyl)-6-methyl-5H-pyrrolo[3,2-d]pyrimidine-4-carboxamide] | 10 to 100 |
| CNC(=O)[C@H]1CC[C@H](NC(=O)c2nc(-n3ccnc3)nc3cc[nH]c23)CC1 [Example 170] | 10 to 100 |
| COCCO[C@H]1CC[C@H](NC(=O)c2nc(-n3ccnc3)cc3cnn(C)c23)CC1 [Example 197, 5-(1H-imidazol-1-yl)-N-((1r,4r)-4-(2-methoxyethoxy)cyclohexyl)-1-methyl-1H-pyrazolo[3,4-c]pyridine-7-carboxamide] | 10 to 100 |
| O=C(Nc1ccnc(Cl)c1)c1nc(-n2ccnc2)nc2cc[nH]c12 [Example 140] | < 10 |
| C[C@@H](O)[C@H]1CC[C@H](NC(=O)c2nc(-n3ccnc3)cc3ccsc23)CC1 [Example 264a, N-((1R,4r)-4-((R)-1-hydroxyethyl)cyclohexyl)-5-(1H-imidazol-1-yl)thieno[2,3-c]pyridine-7-carboxamide] | < 10 |
| O=C(N[C@H]1CC[C@H](C(F)(F)F)CC1)c1nc(-n2ccnc2)cc2cn[nH]c12 [Example 171] | < 10 |
| CC(C)(N[C@H]1CC[C@@H](NC(=O)c2nc(-n3ccnc3)nc3cn[nH]c23)CC1)C(F)(F)F [Example 277, 5-(1H-imidazol-1-yl)-N-((1s,4s)-4-((1,1,1-trifluoro-2-methylpropan-2-yl)amino)cyclohexyl)-1H-pyrazolo[4,3-d]pyrimidine-7-carboxamide] | 100 to 1000 |
| O=C(NC1CCOC1)c1nc(-n2ccnc2)nc2cc[nH]c12 (stereo not shown) [Example 91, 2-(1H-Imidazol-1-yl)-N-(tetrahydrofuran-3-yl)-5H-pyrrolo[3,2-d]pyrimidine-4-carboxamide] | < 10 |
| O=C(Nc1ccccn1)c1nc(-n2ccnc2)nc2cc[nH]c12 [Example 81, 2-(1H-Imidazol-1-yl)-N-(pyridin-2-yl)-5H-pyrrolo[3,2-d]pyrimidine-4-carboxamide] | < 10 |
| COCCOc1ccc(NC(=O)c2nc(-n3ccnc3)nc3cc[nH]c23)cc1F [Example 131] | < 10 |
| CC(F)(F)CN[C@H]1CC[C@H](NC(=O)c2nc(-n3ccnc3)cc3ccsc23)CC1 [Example 262, N-((1r,4r)-4-((2,2-difluoropropyl)amino)cyclohexyl)-5-(1H-imidazol-1-yl)thieno[2,3-c]pyridine-7-carboxamide] | 10 to 100 |
| O=C(NCc1ccccc1)c1nc(-n2ccnc2)nc2cc[nH]c12 [Example 79, N-Benzyl-2-(1H-imidazol-1-yl)-5H-pyrrolo[3,2-d]pyrimidine-4-carboxamide] | 100 to 1000 |
| O=C(N[C@H]1CC[C@H](NCCC(F)F)CC1)c1nc(-n2ccnc2)nc2cc[nH]c12 [Example 180] | 10 to 100 |
| COCCO[C@H]1CC[C@H](NC(=O)c2cc(-c3cncs3)cc3nc[nH]c23)CC1 [Example 4, N-((1r,4r)-4-(2-Methoxyethoxy)cyclohexyl)-5-(thiazol-5-yl)-1H-benzo[d]imidazole-7-carboxamide] | 100 to 1000 |
| O=C(NC1CCC(F)(F)CC1)c1nc(-n2ccnc2)nc2ccsc12 [Example 149] | < 10 |
| Cc1cc2nc(-n3ccnc3)nc(C(=O)NC3CCC(F)(F)CC3)c2[nH]1 [Example 173] | < 10 |
| N#C[C@H]1CC[C@H](CNC(=O)c2nc(-n3ccnc3)nc3cc[nH]c23)CC1 [Example 166] | 10 to 100 |
| O=C(N[C@H]1CC[C@H](OC(F)(F)F)CC1)c1nc(-n2ccnc2)nc2cc[nH]c12 [Example 167] | 10 to 100 |
| O=C(NC1CCN(C(=O)CN2CCOCC2)CC1)c1nc(-n2ccnc2)nc2cc[nH]c12 [Example 143] | 10 to 100 |
| CO[C@H]1CC[C@H](NC(=O)c2nc(-n3ccnc3)nc3ccsc23)CC1 [Example 136] | < 10 |
| O=C(NCc1c(F)cccc1C(F)(F)F)c1cc(-n2ccnc2)nc2cc[nH]c12 [Example 44, N-(2-Fluoro-6-(trifluoromethyl)benzyl)-5-(1H-imidazol-1-yl)-1H-pyrrolo[3,2-b]pyridine-7-carboxamide] | 10 to 100 |

| SMILES | IC50 [nM] |
| --- | --- |
| O=C(N[C@H]1CC[C@H](NCC(F)F)CC1)c1nc(-n2ccnc2)nc2cn[nH]c12 [Example 206, N-((1r,4r)-4-(2,2-difluoroethylamino)cyclohexyl)-5-(1H-imidazol-1-yl)-1H-pyrazolo[4,3-d]pyrimidine-7-carboxamide] | 10 to 100 |
| O=C(N[C@H]1CC[C@H](NC2COC2)CC1)c1nc(-n2ccnc2)nc2cc[nH]c12 [Example 216, 2-(1H-imidazol-1-yl)-N-((1r,4r)-4-(oxetan-3-ylamino)cyclohexyl)-5H-pyrrolo[3,2-d]pyrimidine-4-carboxamide] | 10 to 100 |
| C[C@H](O)[C@H]1CC[C@H](NC(=O)c2nc(-n3ccnc3)cc3ccsc23)CC1 [Example 264b, N-((1S,4r)-4-((S)-1-hydroxyethyl)cyclohexyl)-5-(1H-imidazol-1-yl)thieno[2,3-c]pyridine-7-carboxamide] | 10 to 100 |
| O=C(Nc1cccnc1)c1nc(-n2ccnc2)nc2cc[nH]c12 [Example 83, 2-(1H-Imidazol-1-yl)-N-(pyridin-3-yl)-5H-pyrrolo[3,2-d]pyrimidine-4-carboxamide] | < 10 |
| O=C(Nc1ccc(N2CCNCC2)nc1)c1nc(-n2ccnc2)cc2cn[nH]c12 [Example 224, 5-(1H-imidazol-1-yl)-N-(6-(piperazin-1-yl)pyridin-3-yl)-1H-pyrazolo[3,4-c]pyridine-7-carboxamide] | < 10 |
| O=C(N[C@H]1CC[C@H](OCCN2CCOCC2)CC1)c1nc(-n2ccnc2)nc2cc[nH]c12 [Example 97, 2-(1H-Imidazol-1-yl)-N-((1r,4r)-4-(2-morpholinoethoxy)cyclohexyl)-5H-pyrrolo[3,2-d]pyrimidine-4-carboxamide] | 10 to 100 |
| C[C@@H](O)[C@H]1CC[C@H](NC(=O)c2nc(-n3ccnc3)nc3ccsc23)CC1 (single isomer, unassigned) [Example 267a] | < 10 |
| O=C(Nc1cnc(OCCN2CCOCC2)c(Cl)c1)c1nc(-n2ccnc2)nc2cc[nH]c12 [Example 156] | < 10 |
| CS(=O)(=O)N1CCC(NC(=O)c2nc(-n3ccnc3)nc3cc[nH]c23)CC1 [Example 75, 2-(1H-Imidazol-1-yl)-N-(1-(methylsulfonyl)piperidin-4-yl)-5H-pyrrolo[3,2-d]pyrimidine-4-carboxamide] | < 10 |
| O=C(N[C@H]1CC[C@@H](NCCC(F)F)CC1)c1nc(-n2ccnc2)nc2cc[nH]c12 [Example 181] | 100 to 1000 |
| O=C(Nc1ccc(OCCN2CCOCC2)nc1)c1nc(-n2ccnc2)nc2cc[nH]c12 [Example 145] | < 10 |
| CC(F)(F)CN[C@H]1CC[C@H](NC(=O)c2nc(-n3ccnc3)nc3ccsc23)CC1 [Example 246, N-((1r,4r)-4-((2,2-difluoropropyl)amino)cyclohexyl)-2-(1H-imidazol-1-yl)thieno[3,2-d]pyrimidine-4-carboxamide] | 10 to 100 |
| COCCO[C@H]1CC[C@H](NC(=O)c2nc(-n3ccnc3)cc3cc[nH]c23)CC1 [Example 12, 5-(1H-Imidazol-1-yl)-N-((1r,4r)-4-(2-methoxyethoxy)cyclohexyl)-1H-pyrrolo[2,3-c]pyridine-7-carboxamide] | 10 to 100 |
| O=C(NC1CCS(=O)(=O)CC1)c1nc(-n2ccnc2)nc2cc[nH]c12 [Example 61, N-(1,1-Dioxidotetrahydro-2H-thiopyran-4-yl)-2-(1H-imidazol-1-yl)-5H-pyrrolo[3,2-d]pyrimidine-4-carboxamide] | 10 to 100 |
| C[C@]1(NCC(F)(F)F)CC[C@H](NC(=O)c2nc(-n3ccnc3)cc3cn[nH]c23)CC1 [Example 240, 5-(1H-imidazol-1-yl)-N-((1r,4r)-4-methyl-4-((2,2,2-trifluoroethyl)amino)cyclohexyl)-1H-pyrazolo[3,4-c]pyridine-7-carboxamide] | 100 to 1000 |
| C[C@]1(NCC(F)(F)F)CC[C@@H](NC(=O)c2nc(-n3ccnc3)nc3cn[nH]c23)CC1 [Example 274, 5-(1H-imidazol-1-yl)-N-((1s,4s)-4-methyl-4-((2,2,2-trifluoroethyl)amino)cyclohexyl)-1H-pyrazolo[4,3-d]pyrimidine-7-carboxamide] | 10 to 100 |
| CN1CCC(NC(=O)c2nc(-n3ccnc3)nc3cc[nH]c23)CC1 [Example 60, 2-(1H-Imidazol-1-yl)-N-(1-methylpiperidin-4-yl)-5H-pyrrolo[3,2-d]pyrimidine-4-carboxamide] | > 1000 |
| O=C(N[C@H]1CC[C@H](NCC(F)F)CC1)c1nc(-n2ccnc2)nc2cc[nH]c12 [Example 105, N-((1r,4r)-4-((2,2-difluoroethyl)amino)cyclohexyl)-2-(1H-imidazol-1-yl)-5H-pyrrolo[3,2-d]pyrimidine-4-carboxamide] | 10 to 100 |
| C[C@H](O)CO[C@H]1CC[C@H](NC(=O)c2nc(-n3ccnc3)cc3cn[nH]c23)CC1 (single isomer, unassigned) [Example 207] | 10 to 100 |
| O=C(NC1CCCOC1)c1nc(-n2ccnc2)nc2cc[nH]c12 (stereo not shown) [Example 27, 2-(1H-Imidazol-1-yl)-N-(tetrahydro-2H-pyran-3-yl)-5H-pyrrolo[3,2-d]pyrimidine-4-carboxamide] | < 10 |
| COCCO[C@H]1CC[C@H](NC(=O)c2nc(-c3cncs3)cc3cn[nH]c23)CC1 [Example 21, N-((1r,4r)-4-(2-Methoxyethoxy)cyclohexyl)-5-(thiazol-5-yl)-1H-pyrazolo[3,4-c]pyridine-7-carboxamide] | 100 to 1000 |
